From PMC13261364 (International journal of biological macromolecules, 2025)
Like-named read-outs stand apart in the source and are kept apart here.

B1: PaCAγ1, γ-class carbonic anhydrase from Pseudomonas aeruginosa PAO1 (PA5540) (enzyme, UniProt Q9HT34 1-186, looked up)
chain: MIRKNPSGDLPVIDESAYVDKTAIICGKVIIQANVFVGPYAVIRADEVDADGGMQPIVIGANSNIQDGVVIHSKSGAAVTIGEHSSIAHRSIVHGPCEVGDRVFIGFNSVLFNCRVGDGCVVRHNAVVDGCDLPAGFYVPSTERIGPRTDLASMPRVSVSASEFSEDVARTNVDLVRGYKSLQNEF
notes: PaCAγ1, γ-class carbonic anhydrase encoded by PA5540 of P. aeruginosa PAO1; synthetic gene in pET21d; The initiator methionine is absent in the purified protein by LC-MS; source: E. coli BL21 (DE3), purified (His Trap HP, SEC Superdex 75); not shown: His6, C-terminal, kept

Legend:
[1] = tested on: Neisseria gonorrhoeae; parameters: method as in PMID 33765392, PMID 34894972; details: treatment with CA inhibitor; no apparent development of resistance; ref [35],[36]; cited from earlier work
[2] = target: psCA1; details: read-out: KI psCA1; 20 °C, 10 mM Tris buffer, 20 mM NaClO4 pH 8.3; ref [52]; cited from earlier work
[3] = target: PaCAγ1 (Pseudomonas aeruginosa, UniProt Q9HT34); assay: biochemical; details: Stopped-Flow assay, mean from 3 different assays
[4] = target: hCA I (Homo sapiens, UniProt P00915); assay: Stopped-flow CO2 hydration inhibition assay, hCA I; type: biochemical
[5] = tested on: PaCAγ1; assay: biochemical; details: Selectivity Index, ratio of KI
[6] = target: hCA II (Homo sapiens, UniProt P00918); assay: Stopped-flow CO2 hydration inhibition assay, hCA II; type: biochemical; details: mean from 3 different assays, errors ±5–10 %
[7] = tested on: Helicobacter pylori; details: without triggering resistance; ref [37]; cited from earlier work
[8] = target: the molecule itself; assay: SEC-MALS; SEC-MALS-QELS; 700 μg of purified protein loaded on the SEC s75 column, 20 mM TRIS, 150 mM NaCl, pH 8.5, flow rate 0.5 mL/min
[9] = Stopped-Flow assay, mean from 3 different assays, errors ±5–10 %, read-out: KI hCA I

hCA I, sequence (P00915 whole entry): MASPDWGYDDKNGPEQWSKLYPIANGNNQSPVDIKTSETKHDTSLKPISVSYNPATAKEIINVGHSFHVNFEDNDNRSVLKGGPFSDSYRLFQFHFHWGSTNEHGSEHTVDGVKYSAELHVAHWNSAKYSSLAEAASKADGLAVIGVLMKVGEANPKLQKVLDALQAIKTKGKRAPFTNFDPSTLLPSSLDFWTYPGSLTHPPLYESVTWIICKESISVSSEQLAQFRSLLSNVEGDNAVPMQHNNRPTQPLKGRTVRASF

| Molecule | Ki [3] [nM] | other results |
| --- | --- | --- |
| CC(=O)Nc1nnc(S(N)(=O)=O)s1 [AAZ, acetazolamide] |  | effect on N. gonorrhoeae [1]: long-lasting bacteriostatic effects |
| Nc1cccc(S(N)(=O)=O)c1 [ABS, 3-amino-benzene suldonamide] |  | Ki [2]: 19 nM |
| CCN[C@H]1CN(CCCOC)S(=O)(=O)c2sc(S(N)(=O)=O)cc21 [BRZ] | 307 ± 13.1 |  |
| NS(=O)(=O)c1nnc(NS(=O)(=O)c2ccccc2)s1 [BZA] | 290 ± 14.4 |  |
| Nc1cccc(S(N)(=O)=O)c1 [Compound 1] | 189 ± 7.11 |  |
| Nc1ccc(S(N)(=O)=O)cc1 [Compound 2] | 155 ± 5.23 |  |
| NCc1ccc(S(N)(=O)=O)cc1 [Compound 3] | 132 ± 8.86 |  |
| NS(=O)(=O)c1cccc(S(N)(=O)=O)c1 [Compound 5] | 561 ± 32.4 | Ki [4, 9]: 25 µM |
| Cc1ccc(S(N)(=O)=O)cc1 [Compound 6] | 266 ± 14.2 | Ki [4]: 21 µM |
| Nc1ccc(S(N)(=O)=O)cc1F [Compound 7] | 325 ± 13.8 |  |
| Nc1ccc(S(N)(=O)=O)cc1Cl [Compound 8] | 697 ± 44.7 |  |
| Nc1ccc(S(N)(=O)=O)cc1Br [Compound 9] | 3490 |  |
| NS(=O)(=O)c1cc(Cl)cc(Cl)c1O [Compound 10] | 9670 |  |
| Nc1cc(C(F)(F)F)c(S(N)(=O)=O)cc1S(N)(=O)=O [Compound 11] | 3670 |  |
| Nc1cc(Cl)c(S(N)(=O)=O)cc1S(N)(=O)=O [Compound 12] | 6090 |  |
| Nc1nnc(S(N)(=O)=O)s1 [Compound 13] | 72.6 ± 3.43 |  |
| Cn1nc(S(N)(=O)=O)sc1=N [Compound 14] | 97.1 ± 5.32 |  |
| NS(=O)(=O)c1ccc(O)cc1 [Compound 15] | 209 ± 9.19 |  |
| NS(=O)(=O)c1ccc(CO)cc1 [Compound 16] | 533 ± 25.8 |  |
| NS(=O)(=O)c1ccc(CCO)cc1 [Compound 17] | 419 ± 17.7 |  |

| Molecule | Ki [3] [nM] | other results |
| --- | --- | --- |
| NS(=O)(=O)c1ccc(C(=O)O)cc1 [Compound 18] | 793 ± 46.2 |  |
| Nc1nccc(Nc2ccc(S(N)(=O)=O)cc2)n1 [Compound 19] | 1320 |  |
| Nc1ccc(S(=O)(=O)Nc2nnc(S(N)(=O)=O)s2)cc1 [Compound 20] | 244 ± 16.2 |  |
| NS(=O)(=O)c1ccc(CCNS(=O)(=O)c2ccc([N+](=O)[O-])cc2CO)cc1 [Compound 21] | 564 ± 32.9 |  |
| Nc1ccc(S(=O)(=O)Nc2ccc(S(N)(=O)=O)cc2)cc1 [Compound 22] | 386 ± 19.3 |  |
| Nc1ccc(S(=O)(=O)NCc2ccc(S(N)(=O)=O)cc2)cc1 [Compound 23] | 828 ± 51.7 |  |
| Nc1ccc(S(=O)(=O)NCCc2ccc(S(N)(=O)=O)cc2)cc1 [Compound 24] | 584 ± 22.2 |  |
| NS(=O)(=O)c1cc(Cl)c(Cl)c(S(N)(=O)=O)c1 [DCP] | 5680 |  |
| NS(=O)(=O)NCCNc1nonc1/C(=N\c1ccc(F)c(Br)c1)NO [EPC] | 5320 | Ki [4, 9]: 8.26 µM; SI hCA I/PaCAγ1 [5]: 1.6; SI hCA II/PaCAγ1 [5]: 0.2; Ki [6]: 917 nM |
| CCOc1ccc2nc(S(N)(=O)=O)sc2c1 [EZA, ethoxzolamide] |  | effect on N. gonorrhoeae [1]: long-lasting bacteriostatic effects; effect on H. pylori growth [7]: inhibited bacterial growth |
| NC(N)=Nc1nc(CSCC/C(N)=N/S(N)(=O)=O)cs1 [FAM] | 2690 | Ki [4, 9]: 0.922 µM; SI hCA I/PaCAγ1 [5]: 0.3; SI hCA II/PaCAγ1 [5]: 0.02; Ki [6]: 58 nM |
| NS(=O)(=O)c1cc2c(cc1Cl)NCNS2(=O)=O [HTC] | 6600 | SI hCA I/PaCAγ1 [5]: 0.05; SI hCA II/PaCAγ1 [5]: 0.04 |
| NS(=O)(=O)c1ccc(S(=O)(=O)Nc2cccc3c(Cl)c[nH]c23)cc1 [IND] | 453 ± 20.1 |  |
| CC(=O)/N=c1/sc(S(N)(=O)=O)nn1C [MZA] | 68.4 ± 2.93 |  |
| O=C1NS(=O)(=O)c2ccccc21 [SAC] | 13800 |  |
| NS(=O)(=O)c1ccc(N2CCCCS2(=O)=O)cc1 [SLT] | 356 ± 23.8 |  |
| CC1(C)O[C@@H]2[C@@H](CO[C@@]3(COS(N)(=O)=O)OC(C)(C)O[C@@H]23)O1 [TPM] | > 100000 |  |
| Cc1onc(-c2ccccc2)c1-c1ccc(S(N)(=O)=O)cc1 [VLX] | > 100000 |  |
| NS(=O)(=O)Cc1noc2ccccc12 [ZNS] | 4170 |  |
| B1 |  | stoichiometry N [8]: 3 |
